Measured values published in patent US5869499A, “Benzyloxyquinuclidines as substance P antagonists” (Pfizer Inc, priority 1993, dated 1999).
Counter-ions that a name gives are not always drawn.

Tested on: plasma protein extravasation in the ureter in response to capsaicin
Assay: Capsaicin-induced plasma extravasation test
Type: in vivo, male Hartley guinea pigs
Settings: dosed orally 1 h before capsaicin challenge, guinea pig ureter
Procedure: In this test, antiinflammatory activity is determined as the percent inhibition of plasma protein extravasation in the ureter of male Hartley quinea pigs (weighing 300-350 g) in response to the intraperitoneal injection of capsaicin into anesthetized animals. The compounds of the present invention are dissolved in 0.1% methyl cellulose/water and dosed orally 1 h before capsaicin challenge. Evans Blue dye (30 mg/kg) is administered intravenously 5 min before capsaicin challenge. The animals are killed 10 min after capsaicin injection and both right and left ureters are removed. The Evans Blue dye is extracted and determined […]. In the above tests, compounds are considered active if the difference in response between the drug-treated animals and a control group receiving the vehicle alone is statistically significant.

## FC(F)(F)c1cc(CO[C@H]2C3CCN(CC3)[C@H]2C(c2ccccc2)c2ccccc2)cc(C(F)(F)F)c1 [compound (x)]
Cavia porcellus, po
  ED50: 2.4 mg/kg

## O=C(O)[C@@H]1CN2CC[C@H]1[C@H](OCc1cc(C(F)(F)F)cc(C(F)(F)F)c1)[C@@H]2C(c1ccccc1)c1ccccc1 [Example 2, (3S,4R,5S,6S)-3,5-bis(trifluoromethyl)benzyoxy)-6-diphenylmethyl-5-(-1-azabicyclo[2.2.2]octane-3-carboxylic acid hydrochloride]
  ED50 relative to ED50 of non-substituted compound (x): more than 100 times lower
